Measurements reported in patent US9540299B2, “MTOR-independent activator of TFEB for autophagy enhancement and uses thereof” (Hong Kong Baptist University, priority 2015, dated 2017).

target: T1, TFEB (Mus musculus, UniProt Q9R210); test: Expression and distribution of endogenous TFEB in N2a cells (immunostaining, western blot); type: cell-based; conditions: not given
T1 construct: the expression and distribution of endogenous TFEB in N2a cells treated with curcumin and its analogs are determined; endogenous in cells; host or cells: N2a cells
T1 sequence (Q9R210 1-475): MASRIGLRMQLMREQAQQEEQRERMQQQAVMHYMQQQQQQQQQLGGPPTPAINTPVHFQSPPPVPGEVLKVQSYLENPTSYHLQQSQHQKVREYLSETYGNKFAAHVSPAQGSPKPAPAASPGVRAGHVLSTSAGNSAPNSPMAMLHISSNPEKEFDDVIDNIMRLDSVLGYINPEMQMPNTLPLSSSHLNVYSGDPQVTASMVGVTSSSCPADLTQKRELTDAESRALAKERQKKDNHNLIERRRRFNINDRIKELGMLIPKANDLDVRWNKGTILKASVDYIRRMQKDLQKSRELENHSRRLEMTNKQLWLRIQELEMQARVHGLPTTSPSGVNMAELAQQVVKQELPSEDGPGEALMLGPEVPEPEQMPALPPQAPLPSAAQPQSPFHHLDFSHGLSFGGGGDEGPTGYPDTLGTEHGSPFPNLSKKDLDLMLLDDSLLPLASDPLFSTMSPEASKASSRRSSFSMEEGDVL
Experimental: Cells were treated with curcumin (Cur, 10 μM), A2, B3 and C1 (1 μM) for 12 h. […] Data is quantified by ImageJ software and is presented as mean±SD of three replicates for each treatment conditions. At least 1000 cells are analyzed in each treatment group. *p<0.05 vs. the control (0.1% DMSO). FIG. 4C is a western blot showing the expression of endogenous TFEB. […] Data are presented as the mean±SD from three independent experiments. *p<0.05 vs. the control (0.1% DMSO). FIG. 4E is fluorescence images showing expression of 3×Flag-TFEB in Hela cells having treated with Cur (10 μM), A2, B3 and C1 (1 μM) for 12 h. Torin 1 (1 μM) treatment for 2 h is used as a positive control. Cells were fixed and stained with anti-Flag antibody. […] FIG. 4G is the western blot showing the expression of Flag-tagged TFEB in the cytosolic (Cyt.) and nuclear (Nuc.) fractions. ACTB and H3F3A (H3 histone, family 3A) are used as loading control of cytoplasmic and nuclear fraction, respectively. FIG. 4H is showing the relative intensity of TFEB in the cytosolic and nuclear fractions. Data are presented as the mean±SD from three independent experiments. *p<0.05 vs. the control (0.1% DMSO).
N2a cells are treated with E2, E3 and E4 (1 μM) for 12 hours. Torin 1 (1 μM) treatment for 2 hours is used as a positive control. The cells are fixed and stained with TFEB antibody (green) and DAPI (blue) (FIG. 16A). TFEB translocate into nucleus are quantified. Quantification data (FIG. 16B) are presented as mean±SD of three replicates in a representative experiment. At least 500 cells are analyzed in each treatment group.
N2a cells are treated with E2, E3, and E4 (1 μM) for 12 hours. Torin 1 (1 μM) treatment for 2 hours is used as a positive control. The expression of endogenous TFEB in the cytosolic (Cyt.) and nuclear (Nuc.) fractions are determined by western blotting (FIG. 17A) and quantified (FIG. 17B). TUBB (β-tubulin) and H3F3A (H3 histone, family 3A) are used as loading control of cytoplasmic and nuclear fraction respectively. Quantification data are presented as the mean±SD from three independent experiments. *p<0.05 vs. the control (0.1% DMSO).
Cells are lysed on ice in 1× Lysis Buffer (9803, Life Technologies) with complete protease inhibitor mixture (04693124001, Roche Applied Science). Animal tissues are homogenized in nine volumes of ice-cold PBS supplemented with protease inhibitors. Cytosolic and nuclear fractions are isolated using protocols similar to those described previously. Anti-Flag or TFEB antibody is added to the whole cell lysates and Dynabeads® Protein G (10003D, Life Technologies) is used for immunoprecipitation. Proteins are separated by 10-15% SDS-PAGE, transferred, and blotted with the antibodies described. The blots are then incubated with secondary antibodies or the Clean-Blot IP Detection Reagent (21230, Thermo Scientific) at room temperature for 1 h. The protein signals are detected by ECL kit (32106, Pierce) and quantified using ImageJ software.
Cells are seeded on coverslips placed in 24-well plates. After drug treatment, slices are fixed with 3.7% paraformaldehyde, permeabilized in 0.2% Triton X-100 and blocked with 5% BSA. After blocking, the slices are stained with anti-TFEB (1:200) or anti-Flag (1:500) antibodies overnight at 4° C. Alexa Fluor®488 (green) or Alexa Fluor®594 (red) secondary antibodies (1:500) are added for 1 h at room temperature. After nuclear staining with DAPI, the slices are mounted with FluorSave reagent (345789, Calbiochem). Cells are visualized using an Eclipse 80i fluorescence microscope (Nikon Instruments Inc.)
Cells are lysed on ice in 1× Lysis Buffer (9803, Life Technologies) with complete protease inhibitor mixture (04693124001, Roche Applied Science) and phosphatase inhibitor (B15001, Biotool). Cytosolic and nuclear fractions are isolated using protocols similar to those described previously. Proteins are separated by 10-15% SDS-PAGE, transferred, and blotted with the antibodies described. […]

Row | Compound | activity to promote TFEB nucleus translocation, comparison among E series analogs
1 | O=C(/C=C/c1ccccc1I)/C=C/c1ccccc1I [E4] | best activity

same assay, conditions: N2a cells, 1 μM, 12 hours

Row | Compound | nuclear accumulation of endogenous TFEB by immunofluorescence compared to vehicle control | nuclear translocation of endogenous TFEB, cytosolic and nuclear fractions by Western blots
2 | O=C(/C=C/c1ccccc1Br)/C=C/c1ccccc1Br [E3] | striking nuclear accumulation | potently induce
3 | O=C(/C=C/c1ccccc1I)/C=C/c1ccccc1I [E4] | striking nuclear accumulation | potently induce
4 | O=C(/C=C/c1ccccc1Cl)/C=C/c1ccccc1Cl [E2] | striking nuclear accumulation | potently induce

same assay, conditions: N2a cells, 12 h; curcumin 10 μM, analogs 1 μM

Row | Compound | nuclear translocation (distribution) of endogenous TFEB | total levels (expression) of endogenous TFEB
5 | O=C(/C=C/c1cccc(C(F)(F)F)c1)/C=C/c1cccc(C(F)(F)F)c1 [A2, 1,5-bis(3-(trifluoromethyl)phenyl)penta-1,4-dien-3-one] | no effects | no effects
6 | O=C(/C=C/c1ccc(O)cc1)/C=C/c1ccc(O)cc1 [B3, 1,5-bis(4-hydroxyphenyl)penta-1,4-dien-3-one] | no effects | no effects
7 | COc1cc(/C=C/C(=O)CC(=O)/C=C/c2ccc(O)c(OC)c2)ccc1O [curcumin, Curcumin, reference compound] | no effects | no effects
8 | COc1ccccc1/C=C/C(=O)/C=C/c1ccccc1OC [C1, 1,5-bis(2-methoxyphenyl)penta-1,4-dien-3-one] | promotes | increases
